Reference: patent publication US20030224973A1, “Minimising body gain in insulin treatment” (priority 2002, published 2003)
Where two headings read alike, the source gives them in different places.

Legend:
[1] = test system: adult patients with type 1 diabetes; conditions: in vivo
Source text: (§1) All patients were on a basal (twice-daily)-bolus regimen with human soluble insulin as meal related insulin:
(§2) The analysis is based upon an ANOVA model with treatment and country as fixed effects and weight at baseline as covariate.

[2] = test system: patients with type 1 diabetes; conditions: for ANOVA of weight after 6 months of treatment, ITT, Mean (least square mean): insulin aspart as bolus; for HbA, levels: After 6 months; for plasma glucose at 07:00: nightly plasma glucose profile, p<0.05
Source text: One of the secondary objectives of the study was to compare the regimens in terms of the safety profile, including the body weight of the patients.
The analysis is based upon an ANOVA model with treatment as fixed effect and weight at baseline as covariate.

[3] = test system: patients with type 2 diabetes; experiment: Example 4: 6-month open parallel trial, insulin detemir vs NPH insulin once or twice daily, basal/bolus regimen with NovoRapid; assay type: in vivo, human; conditions: for ANOVA of weight after 6 months of treatment, ITT, Mean (least square mean): NovoRapid with meals; for body weight at End of trial, Mean: End of trial (6 months)
Source text: Multicentre, open, randomised, parallel trial comprising a screening visit and a randomisation visit followed by a six month treatment period of basal/bolus therapy with either insulin detemir or NPH once or twice daily as needed. The patients received NovoRapid® with meals as bolus insulin throughout the trial.
The study included 506 type 2 diabetic patients aged 35 years or above with type 2 diabetes for ≧12 months treated with insulin or insulin analogues for at least 2 months, with a HbA1c≦12.0%, a basal insulin dose ≧30% of the total daily insulin dose and no other clinically relevant diseases were included in the trial.

[4] = test system: patients with type 1 diabetes; experiment: Example 5: 16-week three arm trial, insulin detemir morning and pre-dinner, insulin detemir morning and bedtime, NPH insulin morning and bedtime, insulin aspart with meals; assay type: in vivo, human; conditions: for body weight at Baseline, Mean / body weight at End of trial, Mean: both detemir groups pooled; for body weight at End of trial, Mean: End of trial (16 weeks)
Protocol: All patients received insulin aspart (IAsp) with meals. The trial included a Screening Visit to assess patient eligibility and a Randomisation Visit (maximum 2 weeks after the Screening Visit). The following 16 week treatment period included 5 visits. In addition, patients were contacted every second day in the first two weeks (or longer if necessary) to ensure that optimal basal insulin dose was achieved fast and smoothly. A post-treatment telephone Follow-up was performed approximately one week after the last visit.
The study included 400 type 1 diabetic patients aged 18 or above with a BMI of ≦[…] and HbA1c<12%. The patients had had diabetes ≧12 months and had been treated on a basal/bolus regimen ≧2 months with a basal insulin requirement of ≧30% of the total daily insulin dose, and a total daily basal insulin dose below 100 IU. Patients were to have no major diabetic complications or other significant diseases.

[5] = test system: patients with type 1 diabetes; experiment: Example 3: 6-month open-label parallel trial, once daily insulin detemir vs NPH insulin, basal/bolus regimen with human soluble insulin; assay type: in vivo; conditions: for ANOVA of weight after 6 months of treatment, ITT, Mean (least square mean): once daily basal, human soluble insulin at meals; for body weight at End of trial, Mean: End of trial (6 months)
Source text: All patients were on a basal/bolus insulin regimen with human soluble insulin as meal-related insulin. […] The trial included a screening visit to assess patient eligibility and a randomisation visit (maximum 3 weeks after the screening visit) followed by a six-month treatment period. In order to achieve glycaemic control, the investigator had contact with the patients at least every other working day during the first two weeks of treatment or as long as necessary to achieve glycaemic control. A post-treatment follow-up visit was performed 2-6 days after the last visit.
The study included 750 type 1 diabetic patients aged 18 years or above and having a HbAtc≦12%. […] The patients were to have no major diabetic complications or other significant diseases.

[6] = test system: patients with type 1 diabetes; experiment: Example 2 b): 6-month extension trial (12 months of treatment), insulin detemir vs NPH insulin, IAsp as meal related insulin; assay type: in vivo, human; conditions: for ANOVA of weight after 12 months of treatment, ITT, Mean (least square mean): IAsp as meal related insulin; for body weight at End of trial, Mean: End of trial (12 months)
Source text: A 6-month extension of a multi-centre, open-label, asymmetrically randomised, parallel trial.
Patients who agreed to participate in the extension period continued treatment without interruption.
Following completion of the 6-month initial period, the extension period included 3 visits (0, 3 and 6 months after the start of the extension period).
The patients were advised to maintain their usual diet and daily activities.
All patients who completed the 6-month treatment period in the trial described under Section a) above and who were able and willing to participate in the extension period were included. Thus, the Section b) trial included 316 patients.

[7] = test system: patients with type 1 diabetes; conditions: for ANOVA of weight after 6 months of treatment, ITT, Mean (least square mean): type 1 diabetes, human soluble insulin as bolus, baseline weight as covariate
Source text: Material and Methods: A total of 460 patients with no clinically significant diseases or diabetic complications were exposed (287 men and 173 women).
as §2

[8] = test system: patients with type 1 diabetes; experiment: Example 6: 16-week three-group trial, insulin detemir at 12-hour intervals, insulin detemir morning and bedtime, NPH morning and bedtime, insulin aspart at meals; assay type: in vivo, human; conditions: for average body weight gained: Morn_Bed groups; for body weight at Baseline, Mean / body weight at End of trial, Mean: both detemir groups pooled; for body weight at End of trial, Mean: End of trial (16 weeks)
Protocol: A 16 week, multi-centre, multi-national, open, randomised three-group parallel study comparing administration of insulin detemir at 12-hour intervals, insulin detemir morning and bedtime and NPH morning and bedtime in patients with type 1 diabetes
All patients received insulin aspart at meals. The trial included a Screening Visit to assess patient's eligibility and a Randomisation Visit, followed by a treatment period 16 of weeks. A post-treatment follow-up Visit was carried out approximately 1 week after the last visit.
The study included 409 type 1 diabetic patients aged 18 or above and HbA1c≦12%. The patients had had diabetes >12 months and had been treated on a basal (twice daily)/bolus regimen ≧2 months using an intermediate/long-acting insulin as a basal insulin and fast-acting human insulin or insulin analogue as bolus insulin.

[9] = test system: adult patients with type 1 diabetes; experiment: Example 1 b): 6-month extension trial (12 months of treatment), insulin detemir vs NPH insulin, human soluble insulin as meal related insulin; conditions: for ANOVA of weight after 12 months of treatment, ITT, Mean (least square mean): human soluble insulin as meal related insulin; for body weight at End of trial, Mean: End of trial (12 months)
Source text: as §1, §2

[10] = 6 months, difference between treatments
[11] = 16 weeks, Morn_Bed (morning and bedtime)
[12] = 12 months, difference between treatments
[13] = 12 months, not statistically significant

N^εB29-tetradecanoyl des(B30) human insulin [Insulin detemir]
proportion of patients with serious adverse events [1]: 9.1%
risk of hypoglycemia during the night, relative risk (detemir/NPH) [1]: 0.71
ANOVA of weight after 6 months of treatment, ITT, Mean (least square mean) ([2]; 6 months): 70.9 kg
Fasting plasma glucose difference, insulin detemir vs NPH insulin ([2]; 6 months, not statistically significant, p=0.097): -0.76 mM
difference in mean body weight between the groups ([2]; 6 months, statistically significant): 1 kg
HbA, levels [2]: 7.60%
Body weight (baseline adjusted) vs NPH insulin ([2]; at the end of the trial, p<0.001): significantly lower
general safety profile between the two treatments ([2]; in vivo): similar
plasma glucose at 07:00 [2]: 7.6 mM/L
average body weight lost ([2]; over 6 months, not statistically significant): 0.2 kg
shapes of the nightly plasma glucose profiles vs NPH insulin ([2]; p=0.05): smoother and more stable
increase of mean body weight ([3]; 6 months): 0.4 kg
ANOVA of weight after 6 months of treatment, ITT, Mean (least square mean) ([3]; 6 months): 87.8 kg
ANOVA of weight after 6 months, insulin detemir − NPH, Mean [3, 10]: -0.79 kg
body weight at Baseline, Mean [3]: 85.4 kg
body weight at End of trial, Mean [3]: 85.8 kg
Weight, Pairwise Comparison, Mean Difference Detemir Morn_Bed - NPH Morn_Bed ([4]; 16 weeks): -0.6 kg
Weight, Pairwise Comparison, Mean Difference Detemir Morn_Dinner - Detemir Morn_Bed ([4]; 16 weeks): -0.7 kg
Weight, Pairwise Comparison, Mean Difference Detemir Morn_Dinner - NPH Morn_Bed ([4]; 16 weeks): -1.3 kg
ANOVA of Weight after 16 Weeks of Treatment, Adjusted for Change in HbA1c, ITT, Mean (least square mean) [4, 11]: 75.81 kg
ANOVA of Weight after 16 Weeks of Treatment, Adjusted for Change in HbA1c, ITT, Mean (least square mean) ([4]; 16 weeks, Morn_Dinner (morning and pre-dinner)): 75.12 kg
Weight in both insulin detemir groups compared with NPH insulin ([4]; 16 weeks, statistically significant): lower
body weight at Baseline, Mean [4]: 76.3 kg
body weight at End of trial, Mean [4]: 76.2 kg
average body weight lost during the trial ([5]; 6 months): 0.2 kg
ANOVA of weight after 6 months, insulin detemir − NPH, Mean [5, 10]: -0.52 kg
ANOVA of weight after 6 months of treatment, ITT, Mean (least square mean) ([5]; 6 months): 76.2 kg
body weight at Baseline, Mean [5]: 76.5 kg
body weight at End of trial, Mean [5]: 76.3 kg
ANOVA of weight after 12 months of treatment, ITT, Mean (least square mean) ([6]; 12 months): 71.5 kg
ANOVA of weight after 12 months, insulin detemir − NPH, Mean [6, 12]: -1.34 kg
average body weight lost during the trial [6, 13]: 0.1 kg
body weight at Baseline, Mean [6]: 71.4 kg
body weight at End of trial, Mean [6]: 71.3 kg
difference in body weight between the groups ([6]; after 12 months, statistically significant): 1.3 kg
9-point blood glucose profiles, insulin detemir and NPH ([7]; 6 months): comparable
average body weight lost during the trial ([7]; 6 months): 0.5 kg
ANOVA of weight after 6 months of treatment, ITT, Mean (least square mean) ([7]; 6 months): 75.4 kg
HbA1c absolute mean difference between treatments (insulin detemir-NPH) ([7]; after 6 months, 95% CI [−0.05, 0.22]): 0.08 % point
number of patients with hypoglycaemic episodes between the two treatments ([7]; in vivo): not statistically significantly different
safety profiles between the two treatments ([7]; in vivo): comparable
intra-patient variation in fasting blood glucose (FBG) vs NPH ([7]; not statistically significant, p=0.06): tendency towards lower intra-patient variation
difference in FPG between treatments ([7]; p=0.78): No statistically significant difference
Weight, Pairwise Comparison, Mean Diff. Detemir Morn_Bed - NPH Morn_Bed ([8]; 16 weeks): -0.6 kg
ANOVA of Weight after 16 Weeks of Treatment, Adjusted for Change in HbA1c, ITT, Mean (least square mean) ([8]; 16 weeks, 12 h_interval): 75.20 kg
average change of body weight ([8]; 16 weeks, 12 h_interval group): maintained their weight
ANOVA of Weight after 16 Weeks of Treatment, Adjusted for Change in HbA1c, ITT, Mean (least square mean) [8, 11]: 75.41 kg
average body weight gained ([8]; 16 weeks): 0.2 kg
Weight, Pairwise Comparison, Mean Diff. Detemir 12 h_interval - NPH Morn_Bed ([8]; 16 weeks, first comparison, p=0.0061): -0.8 kg
Weight, Pairwise Comparison, Mean Diff. Detemir 12 h_interval - NPH Morn_Bed ([8]; 16 weeks, third comparison as printed, p=0.4772): -0.2 kg
body weight at Baseline, Mean [8]: 76.3 kg
body weight at End of trial, Mean [8]: 76.2 kg
ANOVA of weight after 12 months, insulin detemir − NPH, Mean [9, 12]: -1.66 kg
ANOVA of weight after 12 months of treatment, ITT, Mean (least square mean) ([9]; 12 months): 75.2 kg
weight loss [9, 13]: 0.3 kg
body weight at Baseline, Mean [9]: 76.6 kg
body weight at End of trial, Mean [9]: 76.3 kg
HbA1c ([9]; after 12 months of treatment): 7.9%
difference in body weight between groups ([9]; after 12 months of treatment, p=0.002): 1.7 kg

NPH insulin: comparator basal insulin in the trials [reference compound]
ANOVA of weight after 6 months of treatment, ITT, Mean (least square mean) ([2]; 6 months): 71.8 kg
HbA, levels [2]: 7.64%
plasma glucose at 07:00 [2]: 9.5 mM/L
average body weight gained ([2]; over 6 months): 0.7 kg
increase of mean body weight ([3]; 6 months): 1.3 kg
ANOVA of weight after 6 months of treatment, ITT, Mean (least square mean) ([3]; 6 months): 88.6 kg
body weight at Baseline, Mean [3]: 89.7 kg
body weight at End of trial, Mean [3]: 91.0 kg
ANOVA of Weight after 16 Weeks of Treatment, Adjusted for Change in HbA1c, ITT, Mean (least square mean) [4, 11]: 76.40 kg
body weight at Baseline, Mean [4]: 74.5 kg
body weight at End of trial, Mean [4]: 75.3 kg
average body weight gained during the trial ([5]; 6 months): 0.4 kg
ANOVA of weight after 6 months of treatment, ITT, Mean (least square mean) ([5]; 6 months): 76.7 kg
body weight at Baseline, Mean [5]: 76.1 kg
body weight at End of trial, Mean [5]: 76.5 kg
average body weight gained during the trial ([6]; 12 months): 1.2 kg
ANOVA of weight after 12 months of treatment, ITT, Mean (least square mean) ([6]; 12 months): 72.8 kg
body weight at Baseline, Mean [6]: 71.5 kg
body weight at End of trial, Mean [6]: 72.7 kg
average body weight gained during the trial ([7]; 6 months): 0.7 kg
ANOVA of weight after 6 months of treatment, ITT, Mean (least square mean) ([7]; 6 months): 76.5 kg
ANOVA of Weight after 16 Weeks of Treatment, Adjusted for Change in HbA1c, ITT, Mean (least square mean) [8, 11]: 76.04 kg
average body weight gained ([8]; 16 weeks): 0.7 kg
body weight at Baseline, Mean [8]: 74.5 kg
body weight at End of trial, Mean [8]: 75.3 kg
ANOVA of weight after 12 months of treatment, ITT, Mean (least square mean) ([9]; 12 months): 76.9 kg
weight gain ([9]; 12 months, statistically significant): 1.4 kg
body weight at Baseline, Mean [9]: 75.8 kg
body weight at End of trial, Mean [9]: 77.2 kg
proportion of patients with serious adverse events ([9]; during 12 months): 13.4%
